What was measured:
PD-1/PD-L1 = PD-1/PD-L1 (Homo sapiens, UniProt Q9NZQ7); experiment: PD-1/PD-L1 biochemical protein-protein interaction assay (ALPHA); assay type: binding; conditions: 0.3 nM His tagged PD-L1, 2.5 nM biotinylated Fc-PD-1, 60 minutes at 25° C., read-out: IC50 PD-L1-PD-1 Alpha IC50-mono PD-L1-fcP-D1
Procedure, shortened: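 Bead proximity read-out: compound-driven loss of ALPHA signal between anti-His acceptor and streptavidin donor beads (20 μg/mL acceptor). Proteins: 0.3 nM His-PD-L1, 2.5 nM biotin-Fc-PD-1, final. 60 min, 25° C, Hepes pH 7.4 buffer. IC50 via four-parameter dose-response fit.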

PD-1/PD-L1 interaction = molecular target: T1, PD-1/PD-L1 interaction (Homo sapiens, UniProt Q9NZQ7); experiment: PD-1/PD-L1 NFAT reporter co-culture assay; assay type: cell-based; conditions: Jurkat PD-1 NFAT-luciferase cells co-cultured with aAPC-PD-L1 CHO cells, 6 hrs at 37° C.; read-out: EC50 NFAT Luciferase
T1 construct: expressed in transfected cells; host or cells: CHO cells (aAPC-PD-L1) co-cultured with Jurkat cells overexpressing PD-1 and an NFAT-luciferase reporter
Procedure, shortened: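 Jurkat cells overexpressing PD-1 with NFAT-driven luciferase were mixed with compound in RPMI 1640/2% FBS and seeded onto overnight-plated CHO aAPC-PD-L1 cells expressing surface anti-CD3 and PD-L1. Co-culture ran 6 h at 37 °C; luminescence read with ONE-Glo; EC50 from four-parameter fit.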

PD-L1 = molecular target: T2, PD-L1 (Homo sapiens, UniProt Q9NZQ7); experiment: PD-L1/PD-L1 dimerization biochemical protein-protein interaction assay (ALPHA); assay type: binding; conditions: compound-induced PD-L1 dimerization, head prints '1 nM' (0.5 nM His-tagged PD-L1 and 0.5 nM FLAG-tagged PD-L1), read-out: AC50 PDL1 Dimer Alpha 1 nM
T2 construct: determine if they can specifically dimerize the extracellular domains of PD-L1
Procedure, shortened: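 After 2 h at 25 °C with compound, His- and FLAG-tagged PD-L1 ECDs (each 0.5 nM final; 25 mM Hepes pH 7.4, 150 mM NaCl) were detected by sequential anti-His acceptor and anti-FLAG donor bead incubations. Dose-response curves fitted to four-parameter equation for AC50.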

T1 sequence (Q9NZQ7 19-290): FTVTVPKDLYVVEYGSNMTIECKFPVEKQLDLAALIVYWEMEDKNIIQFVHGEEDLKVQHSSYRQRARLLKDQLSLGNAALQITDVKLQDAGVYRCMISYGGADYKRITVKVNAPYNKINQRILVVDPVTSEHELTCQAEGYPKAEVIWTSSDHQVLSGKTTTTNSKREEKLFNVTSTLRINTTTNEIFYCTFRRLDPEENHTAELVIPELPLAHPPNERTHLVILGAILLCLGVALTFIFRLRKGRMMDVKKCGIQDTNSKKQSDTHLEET
Chain of PD-1/PD-L1 (Q9NZQ7 19-238 limits assumed): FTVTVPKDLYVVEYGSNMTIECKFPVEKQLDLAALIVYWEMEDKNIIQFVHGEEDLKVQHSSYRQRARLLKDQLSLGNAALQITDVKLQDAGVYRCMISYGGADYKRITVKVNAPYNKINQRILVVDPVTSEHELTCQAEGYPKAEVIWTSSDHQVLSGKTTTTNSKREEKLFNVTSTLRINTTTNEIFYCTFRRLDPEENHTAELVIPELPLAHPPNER
T2 sequence (Q9NZQ7 19-238 limits assumed): as above
T2 sequence (Q9NZQ7 19-238 limits assumed): as above

IC50 (PD-1/PD-L1) [nM]	EC50 (PD-1/PD-L1 interaction) [nM]	AC50 (PD-L1) [nM]	SMILES
1.19	1730	296	COc1nc(-c2cccc(-c3cccc(-c4ccc5cc(CN(C)C)[nH]c5c4)c3Cl)c2Cl)ccc1CNC[C@@H]1CCC(=O)N1 [Example 607]
1.72	≥ 50000	214	COc1nc(-c2cccc(-c3cccc(-c4ccc5[nH]cc(CN(C)C)c5c4)c3Cl)c2Cl)ccc1CNC[C@@H]1CCC(=O)N1 [Example 608]
2.45	≥ 50000	729	COc1nc(-c2cccc(-c3cccc(-c4ccc5c(c4)CCC(N)C5)c3Cl)c2Cl)ccc1CN1CC2(CCC(=O)N2)C1 (stereo not drawn) [Example 612]
0.295	≥ 50000	156	COc1nc(-c2cccc(-c3cccc(-c4ccn5cc(CN6CC(O)C6)nc5c4)c3Cl)c2Cl)ccc1CN1CC(O)C1 [Example 616]
0.224	≥ 50000	389	COc1nc(-c2cccc(-c3cccc(-c4ccn5cc(CN6CC7(CCC(=O)N7)C6)nc5c4)c3Cl)c2Cl)ccc1CN1CC2(CCC(=O)N2)C1 [Example 618]
2.84	≥ 50000	≥ 10000	COc1nc(-c2cccc(-c3cccc(-c4ccc5ncc(CNCCO)n5c4)c3Cl)c2Cl)ccc1CNCCO [Example 620]
0.567	≥ 50000	≥ 10000	COc1nc(-c2cccc(-c3cccc(-c4ccc5ncc(CNC[C@@H]6CCC(=O)N6)n5c4)c3Cl)c2Cl)ccc1CNC[C@@H]1CCC(=O)N1 [Example 622]
5.2	≥ 50000	≥ 10000	COc1nc(-c2cccc(-c3cccc(-c4ccc5c(c4)[C@H](N)CC5)c3Cl)c2Cl)ccc1C1=NCCN1 [Example 623]
1.26	2280	2840	COc1nc(-c2cccc(-c3cccc(-c4nc5ccc(CNC[C@@H]6CCC(=O)N6)cn5n4)c3Cl)c2Cl)ccc1CNC[C@@H]1CCC(=O)N1 [Example 633]
0.208	495	96.9	COc1nc(-c2cccc(-c3cccc(-c4nc5cc(CNCCO)cc(OC)c5o4)c3Cl)c2Cl)ccc1CNCCO [Example 634]
0.1	≥ 50000	340	OCCNCc1cc(Cl)c2nc(-c3cccc(-c4cccc(-c5nc6c(Cl)cc(CNCCO)cn6n5)c4Cl)c3Cl)nn2c1 [Example 635]
0.064	429	23.8	COc1nc(O[C@H]2CCc3c(-c4cccc(-c5nc6cc(CNCCO)ccn6n5)c4Cl)cccc32)c(Cl)cc1CNCCO [Example 638, (S)-2-(((2-(2-chloro-3-(1-((3-chloro-5-(((2-hydroxyethyl)amino)methyl)-6-methoxypyridin-2-yl)oxy)-2,3-dihydro-1H-inden-4-yl)phenyl)-[1,2,4]triazolo[1,5-a]pyridin-7-yl)methyl)amino)ethan-1-ol]

Further lines, the compound ahead of its results:

SMILES	IC50 (PD-1/PD-L1) [nM]	EC50 (PD-1/PD-L1 interaction) [nM]	AC50 (PD-L1) [nM]
COc1nc(-c2cccc(-c3cccc(-c4ccc5c(C[N+](C)(C)C)c[nH]c5c4)c3Cl)c2Cl)ccc1CNC[C@@H]1CCC(=O)N1 [Example 609]	0.387	541	143
COc1nc(-c2cccc(-c3cccc(-c4ccc5c(CN(C)C)c[nH]c5c4)c3Cl)c2Cl)ccc1CNC[C@@H]1CCC(=O)N1 [Example 610]	0.746	≥ 50000	105
COc1nc(-c2cccc(-c3cccc(-c4ccc5c(c4)[C@H](O)C[C@@H]5N)c3Cl)c2Cl)ccc1CNC[C@@H]1CCC(=O)N1 [Example 611]	0.482	223	408
COc1nc(-c2cccc(-c3cccc(-c4ccc5c(c4)C[C@@H](N)C5)c3Cl)c2Cl)ccc1CN1CC2(CCC(=O)N2)C1 [Example 613]	1.38	484	158
COc1nc(-c2cccc(-c3cccc(-c4ccc5ncc(CN6CC7(CCC(=O)N7)C6)n5c4)c3Cl)c2Cl)ccc1CN1CC2(CCC(=O)N2)C1 [Example 614]	11.5	≥ 50000	≥ 10000
COc1nc(-c2cccc(-c3cccc(-c4ccc5ncc(CN6CC(O)C6)n5c4)c3Cl)c2Cl)ccc1CN1CC(O)C1 [Example 615]	7.88	≥ 50000	≥ 10000
COc1nc(-c2cccc(-c3cccc(-c4ccn5cc(CN(C)C)nc5c4)c3Cl)c2Cl)ccc1CN(C)C [Example 617]	0.17	≥ 50000	265
COc1nc(-c2cccc(-c3cccc(-c4ccn5cc(CNC[C@@H]6CCC(=O)N6)nc5c4)c3Cl)c2Cl)ccc1CNC[C@@H]1CCC(=O)N1 [Example 619]	0.159	187	118
COc1nc(-c2cccc(-c3cccc(-c4ccc5ncc(CNC[C@@H](O)CC(=O)O)n5c4)c3Cl)c2Cl)ccc1CNC[C@@H](O)CC(=O)O [Example 621]	1.04	≥ 50000	≥ 10000
COc1nc(-c2cccc(-c3cccc(-c4ccc5c(c4)CCC5N)c3Cl)c2Cl)ccc1C1=NCCN1 (stereo not drawn) [Example 624]	0.109	≥ 50000	20.9
COc1nc(-c2cccc(-c3cccc(-c4ccc5c(c4)C[C@@H](N)C5)c3Cl)c2Cl)ccc1C1=NCCN1 [Example 625]	0.238	≥ 50000	98.2
O=C1CC[C@@H](CNCc2ccc(-c3cccc(-c4cccc(-c5ccc(CNC[C@@H]6CCC(=O)N6)c(N6CCOCC6)c5)c4Cl)c3Cl)cc2N2CCOCC2)N1 [Example 626]	3.08	≥ 50000	≥ 10000
COc1cc(-c2cccc(-c3cccc(-c4ccc(CNCCO)c(OC)c4)c3C)c2C)ccc1CNCCO [Example 627]	2.44	≥ 50000	480
COc1cc(-c2cccc(-c3cccc(-c4cnc(C5=NCCN5)c(OC)c4)c3Cl)c2Cl)cnc1CNC[C@@H](O)CC(=O)O [Example 629]	0.064	251	≥ 10000
COc1cc(-c2cccc(-c3cccc(-c4cnc(C5=NCCN5)c(OC)c4)c3Cl)c2Cl)cnc1C1=NCCN1 [Example 630]	0.064	165	≥ 10000
COc1nc(-c2cccc(-c3cccc(N4Cc5cc(CN6CC7(CCC(=O)N7)C6)ccc5C4=O)c3Cl)c2Cl)ccc1CN1CC2(CCC(=O)N2)C1 [Example 631]	0.13	≥ 50000	441
COc1nc(-c2cccc(-c3cccc(N4Cc5cc(CNC[C@@H]6CCC(=O)N6)ccc5C4=O)c3Cl)c2Cl)ccc1CNC[C@@H]1CCC(=O)N1 [Example 632]	0.147	2980	314
COc1nc(-c2cccc(-c3cccc(-c4nc5cc(CNCCO)ccc5o4)c3Cl)c2Cl)ccc1CNCCO [Example 636]	0.188	180	83.6
CS(=O)(=O)c1cncc(COc2nc(O[C@H]3CCc4c(-c5cccc(-c6ccc(OCCNCCO)cc6)c5Cl)cccc43)c(Cl)cc2CNC[C@@H](O)CC(=O)O)c1 [Example 637, (S)-4-(((5-chloro-6-(((S)-4-(2-chloro-4′-(2-((2-hydroxyethyl)amino)ethoxy)-[1,1′-biphenyl]-3-yl)-2,3-dihydro-1H-inden-1-yl)oxy)-2-((5-(methylsulfonyl)pyridin-3-yl)methoxy)pyridin-3-yl)methyl)amino)-3-hydroxybutanoic acid]	0.064	90	20.8
COc1nc(-c2cccc(-c3cccc4c3CC[C@@H]4Oc3nc(OC)c(CN4CC[C@@H](c5nnn[nH]5)C4)cc3Cl)c2Cl)ccc1CNC[C@@H]1CCC(=O)N1 [Example 641]	0.064	60	34.7
